Reference: patent US20040102431A1, “Substituted amino-aza-cycloalkanes useful against malaria” (priority 2000, published 2004)
Square brackets hold non-standard residues; d marks the D form. Peptide text beside a SMILES is read from it. * marks the point of attachment. Sta = CC(C)C[C@H](N)[C@@H](O)CC(=O)O; Isovaleryl = CC(C)CC(=O)*

Tests used:
plasmepsin II = plasmepsin II (Plasmodium falciparum, UniProt P46925); assay: biochemical; details: Additional Examples table; FRET, pH 5, 37° C., 40 min, substrate 1 μM; read-out: IC50 (nM) on plasmepsin II
P. falciparum = details: cited from earlier work

plasmepsin II, sequence (P46925 125-453): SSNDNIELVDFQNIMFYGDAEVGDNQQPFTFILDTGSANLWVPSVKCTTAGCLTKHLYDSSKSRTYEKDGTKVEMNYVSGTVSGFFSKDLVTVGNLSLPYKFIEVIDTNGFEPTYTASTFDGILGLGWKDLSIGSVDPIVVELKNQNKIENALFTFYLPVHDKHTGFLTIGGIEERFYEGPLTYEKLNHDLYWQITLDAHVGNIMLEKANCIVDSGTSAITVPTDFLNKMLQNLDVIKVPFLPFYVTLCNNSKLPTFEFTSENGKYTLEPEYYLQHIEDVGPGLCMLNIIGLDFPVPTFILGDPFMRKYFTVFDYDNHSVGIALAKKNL

IC50 (plasmepsin II)	SMILES	growth of P. falciparum in red blood cells in vitro (P. falciparum)
385 nM	CCCCCc1ccc(C(=O)N(Cc2ccc(-c3ccccc3)cc2)C2CCN(Cc3ccc(F)cc3)CC2)cc1 [Example 101, N-Biphenyl-4-ylmethyl-N-[1-(4-fluorobenzyl)piperidin-4-yl]-4-pentylbenzamide]	
414 nM	CCCCCc1ccc(CN(Cc2ccc(OCc3ccc(F)cc3)cc2)C2CCN(Cc3ccccc3)CC2)cc1 [Example 102, (1-Benzylpiperidin-4-yl)-[4-(4-fluorobenzyloxy)benzyl]-(4-pentylbenzyl)amine]	
431 nM	CCCCCc1ccc(CN(Cc2ccc(OCc3ccccc3)cc2)C2CCN(Cc3ccccc3)CC2)cc1 [Example 103, (4-Benzyloxybenzyl)-(1-benzyl-piperidin-4-yl)-(4-pentylbenzyl)amine]	
461 nM	CCCCCc1ccc(C(=O)N(Cc2ccc(-c3ccc(N(C)C)cc3)cc2)C2CCN(Cc3ccccc3)CC2)cc1 [Example 106, N-(1-Benzylpiperidin-4-yl)-N-(4′-dimethylaminobiphenyl-4-ylmethyl)-4-pentylbenzamide]	
618 nM	CCCCCc1ccc(CN(Cc2ccc(-c3cncnc3)cc2)C2CCN(Cc3ccccc3)CC2)cc1 [Example 107, (1-Benzylpiperidin-4-yl)-(4-pentyl-benzyl)-(4-pyrimidin-5-ylbenzyl)amine]	
634 nM	CCCCCc1ccc(CN(Cc2ccc(-c3cccc(C(F)(F)F)c3)cc2)C2CCN(Cc3ccccc3)CC2)cc1 [Example 108, (1-Benzylpiperidin-4-yl)-(4-pentyl-benzyl)-(3′-trifluoromethyl-biphenyl-4-ylmethyl)amine]	
656 nM	CCCCCc1ccc(CN(Cc2ccc(-c3ccccc3F)cc2)C2CCN(Cc3ccccc3)CC2)cc1 [Example 109, (1-Benzylpiperidin-4-yl)-(2′-fluoro-biphenyl-4-ylmethyl)-(4-pentyl-benzyl)amine]	
692 nM	CCCCCc1ccc(C(=O)N(Cc2ccc(-c3ccccc3)cc2)C2CCN(Cc3ccc(OC(F)(F)F)cc3)CC2)cc1 [Example 110, N-Biphenyl-4-ylmethyl-4-pentyl-N-[1-(4-trifluoromethoxybenzyl)piperidin-4-yl]benzamide]	
749 nM	CCCCCc1ccc(C(=O)N(C2CCN(Cc3ccccc3)CC2)[C@H](CO)Cc2ccc(OCc3ccccc3)cc2)cc1 [Example 111, N-[(1S)-2-(4-Benzyloxyphenyl)-1-hydroxymethylethyl]-N-(1-benzyl-piperidin-4-yl)-4-pentylbenzamide]	
816 nM	CCCCCc1ccc(C(=O)N(Cc2ccc(-c3cccc(OC(F)(F)F)c3)cc2)C2CCN(Cc3ccccc3)CC2)cc1 [Example 113, N-(1-Benzylpiperidin-4-yl)-4-pentyl-N-(3′-trifluoromethoxy-biphenyl-4-ylmethyl)benzamide]	
817 nM	CCCCCc1ccc(C(=O)N(Cc2ccc(OCc3ccccc3)cc2)[C@@H]2CCN(Cc3ccccc3)C2)cc1 [Example 114, N-(4-Benzyloxybenzyl)-N-((3R)-1-benzylpyrrolidin-3-yl)-4-pentyl-benzamide]	
839 nM	CCCCCc1ccc(C(=O)N(Cc2ccc(N(CCCC)CCCC)cc2)C2CCN(Cc3ccccc3)CC2)cc1 [Example 115, N-(1-Benzylpiperidin-4-yl)-N-(4-dibutylaminobenzyl)-4-pentyl-benzamide]	
882 nM	CCCCCc1ccc(C(=O)N(Cc2ccc(O)cc2)C2CCN(Cc3ccccc3)CC2)cc1 [Example 116, N-(1-Benzylpiperidin-4-yl)-N-(4-hydroxybenzyl)-4-pentyl-benzamide]	
933 nM	CCCCCC(=Cc1ccccc1)CN(C(=O)c1ccc(CCCCC)cc1)C1CCN(Cc2ccccc2)CC1 [Example 117, N-(1-Benzylpiperidin-4-yl)-4-pentyl-N-(2-pentyl-3-phenylallyl)benzamide]	
942 nM	CCCCCC12CCC(C(=O)N(Cc3ccc(-c4ccccc4)cc3)C3CCN(Cc4ccccc4)CC3)(CC1)CC2 [Example 118, 4-Pentylbicyclo[2.2.2]octane-1-carboxylic acid(1-benzylpiperidin-4-yl)-biphenyl-4-ylmethylamide]	
	CC(C)CC(=O)N[C@H](C(=O)N[C@H](C(=O)N[C@@H](CC(C)C)[C@@H](O)CC(=O)N[C@@H](C)C(=O)N[C@@H](CC(C)C)[C@@H](O)CC(=O)O)C(C)C)C(C)C [Pepstatin] (Isovaleryl-VV[Sta]A[Sta]-OH)	inhibits the growth

SMILES	IC50 (plasmepsin II)	growth of P. falciparum in red blood cells in vitro (P. falciparum)
CCCCCc1ccc(C(=O)N(Cc2ccc(OCc3ccccc3)cc2)C2CCN(CCc3ccccc3)CC2)cc1 [Example 112, N-(4-Benzyloxybenzyl)-4-pentyl-N-(1-phenethylpiperidin-4-yl)benzamide]	761 nM	
CCCCCc1ccc(C(=O)N(Cc2ccc(-c3cccnc3)cc2)C2CCN(Cc3ccc(O)cc3)CC2)cc1 [N-[1-(4-Hydroxybenzyl)piperidin-4-yl]-4-pentyl-N-(4-pyridin-3-yl-benzyl)benzamide]	105 nM	
